One test deals with A2058 melanoma cells. Briefly: NO production (NOx) in cultured A2058 cells isolated from treated mice. The test is classed as cell-based, human. Particulars: 24-h cultured A2058 cells isolated from Pter-treated mice.
The next test relates to MeWo melanoma cells. Briefly: Nrf2- and redox state-related enzyme activities and metabolites in MeWo cells growing in vivo. The arrangement: species or system human. As to conditions: in vivo +Pter, day 35. As for the experimental part: Transfection of the Red Fluorescence Protein.
First the pDsRed-2 vector (Clontech Laboratories Inc., Palo Alto, Calif.) was used, as previously described for A375 melanoma cells (Mena, S. et al. J Transl Med 10, 8 (2012)), to engineer A2058, MeWo and MelJuso melanoma clones stably expressing the RFP. Isolation of A2058-RFP, MeWo-RFP or MelJuso-RFP cells from the growing xenografts was performed by laser microdissection and high-performance cell sorting as previously described in detail (Mena, S. et al. J Transl Med 10, 8 (2012)).
To measure enzyme activity, isolated tumor cells were homogenized in 0.1 M phosphate buffer (pH 7.2) at 4° C. GCL and GSS activities were measured as described previously (Obrador, E. et al. Hepatology 35, 74-81 (2002)). GPX (selenium dependent) activity was measured as described by Flohé and Gunzler (Flohe, L. & Gunzler, W. A. Methods Enzymol 105, 114-121 (1984)) using H2O2 as a substrate. GSR activity was determined as described by Akerboom and Sies (Akerboom, T. P. et al, Bull Eur Physiopathol Respir 17 Suppl, 221-227 (1981)). GGT activity was measured as described previously (Obrador, E. et al. Hepatology 35, 74-81 (2002)). GST activity was measured using an assay kit from Sigma. TXNRD activity, defined by the concentration of sodium-lipoate (disulfide) reduced to dehydrolipoate (dithiol) per milligram protein, was measured as previously described (Javvadi, P. et al. Cancer Res 70, 1941-1950 (2010)). SOD activity was measured as described by Flohé and Otting (Flohe, L. & Otting, F. Methods Enzymol 105, 93-104 (1984).) using 2 mM cyanide in the assay medium to distinguish mangano-type enzyme (SOD2) from the cuprozinc type (SOD1). CAT activity was analyzed as described by Aebi (Aebi, H. Methods Enzymol 105, 121-126 (1984)). NOX activity was measured by chemiluminescence following the methodology of Wind et al. (Wind, S. et al. Comparative pharmacology of chemically distinct NADPH oxidase inhibitors. Br J Pharmacol 161, 885-898 (2010)). Protein concentration was determined with the Pierce BCA protein assay (Fisher Scientific, Waltham, Mass.).
Measurement of H2O2 and O2^⋅−.
Quantitative measurement of H2O2 and flow cytometry determination of O2^⋅− generation were performed as previously described (Benlloch, M. et al. J Biol Chem 281, 69-79 (2006)).
GSH, GSSG, NADP^+ and NADPH Determination.
GSH and GSSG were determined, following procedures previously described (Obrador, E. et al. PLoS One 9, e96466 (2014)), by LC/MS using the same equipment described above for pterostilbene determination. Cell processing was performed according to published methodology, where rapid N-ethylmaleimide derivatization was used to prevent GSH auto-oxidation (Asensi, M. et al. Anal Biochem 217, 323-328 (1994)). NADP^+ and NADPH were quantitated using an assay kit from Sigma (St. Louis, Mo.).

The structures appear in SMILES notation.

As to `COc1cc(/C=C/c2ccc(O)cc2)cc(OC)c1` [Pter, trans-3,5-dimethoxy-4′-hydroxystilbene], the “NO production (NOx=NO2^− plus NO3^−)” value in the test on A2058 melanoma cells is recorded as 0.15±0.04 nmol/10^6 cells. Further, in the test on MeWo melanoma cells, the CAT was determined as 1.6 ± 0.4 mU/10^6 cells, the G6PDH came to 266 ± 39 mU/10^6 cells, the GCL amounted to 35 ± 12 mU/10^6 cells and the GGT came to 16.0 ± 2.4 mU/10^6 cells. For the same compound, in the test with MeWo melanoma cells, the GPX came out at 2.8 ± 1.0 mU/10^6 cells, the GSH turned out to be 7.3 ± 1.7 nmol/10^6 cells, the GSH/GSSG was determined as 73 ± 11 and the GSR is on record as 4.9 ± 1.2 mU/10^6 cells. In addition, in the test with MeWo melanoma cells, the GSS was 7.4 ± 1.6 mU/10^6 cells, the GSSG was 0.1 ± 0.03 nmol/10^6 cells, the GST came to 6.5 ± 1.3 mU/10^6 cells and the H2O2 is 0.7 ± 0.2 nmol/10^6 cells × min. For the same compound, in the test with MeWo melanoma cells, the IDH is listed as 1.5 ± 0.4 U/10^6 cells, the ME is 32 ± 11 mU/10^6 cells, the NADPH is 0.05 ± 0.002 nmol/mg prot and the “NADPH/NADP^+” value came to 1.2 ± 0.2. In addition, in the test with MeWo melanoma cells, the “NADP^+” value is recorded as 0.04 ± 0.01 nmol/mg prot; the NOX came to 132 ± 25 R.L.U./10^6 cells; the “O2^−” value is recorded as 3.5 ± 0.7 ΔFL1, a.u; the SOD1 worked out at 0.5 ± 0.2 U/10^6 cells. For the same compound, in the test on MeWo melanoma cells, the SOD2 came to 0.1 ± 0.05 U/10^6 cells, the TXN turned out to be 0.8 ± 0.2 μg/10^6 cells and the TXNRD was determined as 0.9 ± 0.2 U/10^6 cells.

Values taken from patent US11179348B2, “Combination comprising pterostilbene for the treatment of cancer” (FUNDACIÓN UNIVERSIDAD CATÓLICA DE VALENCIA SAN VICENTE …, priority 2015, dated 2021).
